What was measured:
Experiment in all cases: differential drug sensitivity score (dDSS) relative to sarcoma reference cohort mean DSS (DSS units (0-100 scale difference)); higher = more selective sensitivity than reference sarcomas
Settings in all cases: exposure time: 72 h; concentration range: 10-10000 nM
[1] = tested on: CDS-ZH001-2 (patient-derived CIC-DUX4 sarcoma tumoroid)
Procedure: (§1)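 Drug response profiling of patient-derived Ewing sarcoma and CIC::DUX4 sarcoma tumoroid models (or cells tested directly after isolation from the tumor, 'direct'). The DSS is the normalised AUC (0-100); dDSS is the sample DSS minus the mean DSS of a 34-sarcoma reference cohort profiled in the same lab.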

[2] = tested on: CDS-ZH001 (patient-derived CIC-DUX4 sarcoma tumoroid)
Procedure: as §1

[3] = tested on: CDS-ZH002 direct (CIC-DUX4 sarcoma cells right after isolation)
Procedure: as §1

[4] = tested on: CDS-ZH002 (patient-derived CIC-DUX4 sarcoma tumoroid)
Procedure: as §1

[5] = tested on: CDS-ZH003 (patient-derived CIC-DUX4 sarcoma tumoroid)
Procedure: as §1

[6] = tested on: ES-ZH001 (patient-derived Ewing sarcoma tumoroid)
Procedure: as §1

[7] = tested on: ES-ZH002 (patient-derived Ewing sarcoma tumoroid)
Procedure: as §1

[8] = tested on: ES-ZH004 (patient-derived Ewing sarcoma tumoroid)
Procedure: as §1

[9] = tested on: ES-ZH007 (patient-derived Ewing sarcoma tumoroid)
Procedure: as §1

[10] = tested on: ES-ZH008 (patient-derived Ewing sarcoma tumoroid)
Procedure: as §1

[11] = tested on: ES-ZH009 (patient-derived Ewing sarcoma tumoroid)
Procedure: as §1

[12] = tested on: ES-ZH016 direct (Ewing sarcoma cells right after isolation)
Procedure: as §1

[13] = tested on: ES-ZH016 (patient-derived Ewing sarcoma tumoroid)
Procedure: as §1

Row | Compound | differential drug sensitivity score [1] | differential drug sensitivity score [2] | differential drug sensitivity score [3] | differential drug sensitivity score [4] | differential drug sensitivity score [5] | differential drug sensitivity score [6] | differential drug sensitivity score [7] | differential drug sensitivity score [8] | differential drug sensitivity score [9] | differential drug sensitivity score [10] | differential drug sensitivity score [11] | differential drug sensitivity score [12] | differential drug sensitivity score [13]
1 | C[C@]1(c2nc3c(C(N)=O)cccc3[nH]2)CCCN1 [Veliparib] | -1.2 | -1.3 | -1.3 | -1.3 | -0.6 | 4.9 | 8.8 | 5.1 | 1.4 | 5.8 | -1.3 | 5.6 | 1.2
2 | CCCS(=O)(=O)Nc1ccc(F)c(C(=O)c2c[nH]c3ncc(-c4ccc(Cl)cc4)cc23)c1F [Vemurafenib] | -0.6 | -0.6 | -0.6 | -0.6 | 7.4 | -0.6 | -0.6 | -0.6 | -0.6 | -0.6 | 0.8 | -0.6 | -0.6
3 | CC1(C)CCC(CN2CCN(c3ccc(C(=O)NS(=O)(=O)c4ccc(NCC5CCOCC5)c([N+](=O)[O-])c4)c(Oc4cnc5[nH]ccc5c4)c3)CC2)=C(c2ccc(Cl)cc2)C1 [Venetoclax] | 1.4 | 3.9 | -3.5 | -4.7 | -9.4 | 6.9 | 7.9 | 6.1 | -4.7 | 7.3 | -1.6 | 5.9 | -2.6
4 | O=C(/C=C\n1cnc(-c2cc(C(F)(F)F)cc(C(F)(F)F)c2)n1)NNc1ccccn1 [Verdinexor] | 7.9 | 0.6 | 0 | -3.6 | -13 | 3.4 | 11 | 8.4 | 1.5 | 17.7 | -3.2 | 3.7 | 0.1
5 | CC[C@]1(O)C[C@@H]2CN(CCc3c([nH]c4ccccc34)[C@@](C(=O)OC)(c3cc4c(cc3OC)N(C)[C@H]3[C@@](O)(C(=O)OC)[C@H](OC(C)=O)[C@]5(CC)C=CCN6CC[C@]43[C@@H]65)C2)C1 [Vinblastine] | 2.2 | 9.1 | 8.4 | 13.2 | -9.2 | 22.3 | 22.2 | 12.3 | 13.2 | 12.7 | 23.7 | 10.2 | 16.2
6 | CC[C@]1(O)C[C@H]2CN(CCc3c([nH]c4ccccc34)[C@@](C(=O)OC)(c3cc4c(cc3OC)N(C=O)[C@H]3[C@@](O)(C(=O)OC)[C@H](OC(C)=O)[C@]5(CC)C=CCN6CC[C@]43[C@@H]65)C2)C1 [Vincristine] | -4.8 | 9.3 | 13.4 | 10.8 | -10.2 | 24.2 | 24 | 13.2 | 16.1 | 16.9 | 26 | 10 | 18.3
7 | CCC1=C[C@@H]2CN(C1)Cc1c([nH]c3ccccc13)[C@@](C(=O)OC)(c1cc3c(cc1OC)N(C)[C@H]1[C@@](O)(C(=O)OC)[C@H](OC(C)=O)[C@]4(CC)C=CCN5CC[C@]31[C@@H]54)C2 [Vinorelbine] | 9.1 | 8.7 | 4.3 | 6.9 | 0.2 | 23.7 | 22.8 | 15.4 | 15.8 | 14.7 | 24.7 | 12.2 | 20.4
8 | CS(=O)(=O)c1ccc(C(=O)Nc2ccc(Cl)c(-c3ccccn3)c2)c(Cl)c1 [Vismodegib] | -2.6 | -2.7 | 1.1 | -2.4 | -6.9 | 4.7 | 7.1 | 5.2 | 0.4 | 2.8 | -2.6 | -2.7 | 1.4
9 | CC[C@@H]1C(=O)N(C)c2cnc(Nc3ccc(C(=O)N[C@H]4CC[C@H](N5CCN(CC6CC6)CC5)CC4)cc3OC)nc2N1C(C)C [Volasertib] | 13.2 | -2.4 | -3.8 | 4 | -2.3 | 10.3 | 9.4 | 0.5 | 2.9 | 4.5 | 16.1 | 16.6 | 8.9
10 | O=C(CCCCCCC(=O)Nc1ccccc1)NO [Vorinostat] | 0.5 | -4 | -0.2 | -3.6 | 3.3 | 9.5 | 8 | 7.3 | 6.3 | 5.1 | 6.6 | 5.3 | -0.7
11 | Oc1nc(-c2ccc(C(F)(F)F)cc2)nc2c1CSCC2 [XAV-939] | 3.9 | -2.2 | 4.3 | 1.6 | 7.7 | -2.2 | -1.2 | -2.2 | -1.4 | -2.2 | -0.6 | 3.7 | 2.7
12 | COc1ccc(C(=O)CC2(O)C(=O)Nc3c(Cl)ccc(Cl)c32)cc1 (configuration not stated) [YK-4-279] | 1.9 | 0.2 | -2 | -3 | -20.3 | 4.5 | 8.2 | -3.2 | 0 | -0.3 | 3.8 | 2.9 | 3.1
13 | COCC[n+]1c2c(n(Cc3cnccn3)c1C)C(=O)c1ccccc1C2=O [YM155] | 2.5 | -2 | -0.4 | -4.4 | 9.6 | 5.7 | 9.6 | 9.9 | 10.1 | 6.8 | 9.3 | 2.3 | 10.2
14 | CC(C)NCCCn1c(Sc2cc3c(cc2I)OCO3)nc2c(N)ncnc21 [Zelavespib] | 3.1 | 0.5 | -1.1 | -7.7 | 4.4 | 0.8 | 3.4 | -2.1 | 0.4 | 5.8 | 7.3 | 2.3 | -0.6

Source: the supplement of paper PMC12370961
